According to US20100119494A1, “METHODS AND COMPOSITIONS RELATED TO MODULATING THE EXTRACELLULAR STEM CELL ENVIRONMENT” (Massachusetts Institute of Technology, priority 2005, published 2010):

B1: Hep-I: HSGAG-degrading enzyme; cleaves HSGAGs at highly sulfated regions; gift of Momenta Pharmaceuticals (protein, UniProt Q05819 22-384, looked up)
Heparin lyase I: QQKKSGNIPYRVNVQADSAKQKAIIDNKWVAVGINKPYALQYDDKLRFNGKPSYRFELKAEDNSLEGYAAGETKGRTELSYSYATTNDFKKFPPSVYQNAQKLKTVYHYGKGICEQGSSRSYTFSVYIPSSFPDNATTIFAQWHGAPSRTLVATPEGEIKTLSIEEFLALYDRMIFKKNIAHDKVEKKDKDGKITYVAGKPNGWKVEQGGYPTLAFGFSKGYFYIKANSDRQWLTDKADRNNANPENSEVMKPYSSEYKTSTIAYKMPFAQFPKDCWITFDVAIDWTKYGKEANTILKPGKLDVMMTYTKNKKPQKAHIVNQQEILIGRNDDDGYYFKFGIYRVGNSTVPVTYNLSGYSETAR
B2: Hep-III: HSGAG-degrading enzyme; cleaves HSGAGs at undersulfated regions (protein, UniProt Q59289 25-659, looked up)
Heparin-sulfate lyase: QSSSITRKDFDHINLEYSGLEKVNKAVAAGNYDDAAKALLAYYREKSKAREPDFSNAEKPADIRQPIDKVTREMADKALVHQFQPHKGYGYFDYGKDINWQMWPVKDNEVRWQLHRVKWWQAMALVYHATGDEKYAREWVYQYSDWARKNPLGLSQDNDKFVWRPLEVSDRVQSLPPTFSLFVNSPAFTPAFLMEFLNSYHQQADYLSTHYAEQGNHRLFEAQRNLFAGVSFPEFKDSPRWRQTGISVLNTEIKKQVYADGMQFELSPIYHVAAIDIFLKAYGSAKRVNLEKEFPQSYVQTVENMIMALISISLPDYNTPMFGDSWITDKNFRMAQFASWARVFPANQAIKYFATDGKQGKAPNFLSKALSNAGFYTFRSGWDKNATVMVLKASPPGEFHAQPDNGTFELFIKGRNFTPDAGVFVYSGDEAIMKLRNWYRQTRIHSTLTLDNQNMVITKARQNKWETGNNLDVLTYTNPSYPNLDHQRSVLFINKKYFLVIDRAIGEATGNLGVHWQLKEDSNPVFDKTKNRVYTTYRDGNNLMIQSLNADRTSLNEEEGKVSYVYNKELKRPAFVFEKPKKNAGTQNFVSIVYPYDGQKAPEISIRENKGNDFEKGKLNLTLTINGKQQLVLVP

Legend:
Format in all cases: cell-based, mouse
[1] = tested on: phosphorylation of ERK1/2 (MAPK pathway); assay: Western blot of phospho-ERK normalized to total ERK1/2 in differentiating ES cells; conditions: for phosphorylation of ERK1/2: Western blot, FIGS. 14 and 18
Description: (§1) Heparinase III (Hep-III) was prepared as described previously (Godavarti, R., et al. (1996) Biochemistry 35, 6846-52). Heparinase I (Hep-I) was a generous gift of Momenta Pharmaceuticals (Cambridge, Mass.). Sodium chlorate and heparin were purchased from Sigma and Cambrex BioWhittaker (East Rutherford, N.J.), respectively. To enzymatically modify the HSGAG glycome signature of the cells, cells were washed with phosphate buffer saline (PBS) and incubated with Hep-I or Hep-III for 30 minutes every day at 37° C. in serum free DMEM. Digested HSGAG residues were removed by washing the cells, and cells were then fed with fresh media. In an additional experiment, cells were cultured with medium containing sodium chlorate, which blocks the sulfation of HSGAGs. In a reversal experiment, heparin was added to the culture to overcome the chlorate induced synthetic block. Treated cells were analyzed for differentiation into endothelial cells between day 3 and day 15. Hep-III was added to the cells at a concentration of 2.5 μg/mL, Hep-I was added at a concentration of 1.5 μg/mL, sodium chlorate at 10 mM and heparin (20 μg). The concentrations of enzymes were optimized to exhaustively cleave all cell surface HSGAGs in the given period of time. All enzymes and chemicals were diluted in serum free DMEM.
For elucidating the biochemical pathways involved downstream of the modulation of the cell surface sugars, protein contents of the embryoid bodies were solubilized by rapid mixing with 3× SDS sample buffer under reducing conditions. Equivalent amounts of protein per sample were electrophoretically resolved on 4-12% gradient polyacrylamide gels and transferred onto a nitrocellulose (0.22 μm) membrane. The membrane was subsequently probed with a phosphor-ERK antibody (1:800 dilution, Cell Signaling Technologies, Danvers, Mass.), which specifically detects the phosphorylated forms of ERK1 and 2. The signal was amplified using a 1:2000 dilution of the appropriate horseradish peroxidase-conjugated secondary antibody (BioRad, Hercules, Calif.), and the immunocomplexes were visualized using enhanced chemiluminescence detection (Amersham Life Science, Piscataway, N.J.). The signal was normalized to the expression of total ERK1/2, which was detected on the same blot using ERK1/2 specific antibodies (Santa Cruz, Santa Cruz, Calif., used at a 1:200 dilution). Quantification of the luminescence signal was carried out by a Kodak 2000R imager.
The MAPK pathway is the downstream convergence point of the signaling of several angiogenic factors such as VEGF, FGF, HGF, EGF, PDGF and angiopoietins (Sengupta, S., et al. (2003) Arterioscler Thromb Vasc Biol 23, 69-75). […]

[2] = tested on: differentiating ES cells (J1); assay: Real-time PCR of Oct-4, VEGF-R2, VE-cadherin and eNOS transcripts in differentiating ES cells; conditions: for Oct-4 transcript levels / VE-cadherin transcript levels / eNOS transcript levels: real-time PCR, FIG. 19
Description: (§2) Mouse embryonic stem cells (J1) (gift from Bevin Engelward, Mass. Institute of Technology, Cambridge, Mass.) were grown in DMEM with 2 mM L-glutamine (GIBCO, Carlsbad, Calif.) adjusted to contain […] sodium pyruvate, 10 mM nonessential amino acids and 1.5 g/L sodium bicarbonate, with 15% fetal bovine serum (Hyclone, South Logan, Utah) and supplemented with 100 units/mL penicillin G (Sigma, St. Louis, Mo.), 100 μg/mL streptomycin sulfate (Sigma), 30 mM beta-mercaptoethanol (Sigma) and 1000 units/ml murine leukemia inhibitory factor, LIF (Chemicon, Temecula, Calif.). The cells were plated in 10 cm^2 cell culture dishes, coated with 0.1% gelatin B (Sigma) and grown at 37° C. in a 5% CO2 humidifier incubator. The culture medium was changed every 2 days. The cells were subcultured at a split ratio of 1:10 when they reached 80% to 90% confluency, using a 0.25% trypsin-EDTA solution (Sigma). To induce formation of embryoid bodies and differentiation into endothelial cells, J1 cells were plated at a density of 1.25×10^5 cells/100 mm dish, or 3×10^4 cells/6 wells and cultured in the absence of LIF. Fresh media was replenished every 2 days.
as §1
RNA was isolated from J1 cells using TRIzol (Invitrogen, Carlsbad, Calif.) and RNAlater (Qiagen, Valencia, Calif.) according to the manufacturer's protocol. Single-stranded cDNA was generated via oligo-dT primed reverse transcription, and genes serving as markers for differentiation were quantified using an Abi Prism 7700 real-time PCR thermocycler (Applied Biosystems, Foster City, Calif.). Expression levels were obtained for the marker genes Oct-4, VE-cadherin, VEGF-R2, and eNOS, with β-actin used as a control. PCR conditions involved denaturation for 10 min at 95° C., followed by 40 cycles of denaturation for 20 sec at 94° C., and annealing and extension for 1 min at 60° C. cDNA isolated from J1 cells and primers for the described genes were mixed with SYBR Green PCR Mastermix (Applied Biosystems) for real-time quantification according to the manufacturers instructions. Primers used were 5′-[…]-3′ (SEQ ID NO: 1) and 5′-[…]-3′ (SEQ ID NO: 2) for Oct-4; 5′-[…]-3′ (SEQ ID NO: 3) and 5′-[…]-3′ (SEQ ID NO: 4) for VE-cadherin; 5′-[…]-3′ (SEQ ID NO: 5) and 5′-[…]-3′ (SEQ ID NO: 6) for TIE-2; 5′-[…]-3′ (SEQ ID NO: 7) and 5′-[…]-3′ (SEQ ID NO: 8) for VEGF-R2; 5′-[…]-3′ (SEQ ID NO: 9) and 5% […]-3′ (SEQ ID NO: 10) for ENOS; 5′-[…]-'3 (SEQ ID NO: 11) and 5′-[…]-'3 (SEQ ID NO: 12) for 13-actin. The sulfotransferase primers and conditions were chosen. […]

[3] = tested on: differentiating ES cells (J1); assay: Flow cytometry of vWF in differentiating ES cells after enzymatic or pharmacological modification of HSGAGs; conditions: FIG. 12B, Hep-I 1.5 μg/mL or Hep-III 2.5 μg/mL 30 minutes every day, sodium chlorate 10 mM in medium
Description: as §2
Heparinase III (Hep-III) was prepared as described previously (Godavarti, R., et al. (1996) Biochemistry 35, 6846-52). […] Treated cells were analyzed for differentiation into endothelial cells between day 3 and day 15. […]
Cells were harvested at various time points during differentiation, incubated with rat monoclonal antibody against CD16/CD32 (1:50 dilution, Pharmingen, San Diego, Calif.) to block Fey receptors and incubated further with a primary antibody against von Willebrand factor (vWF) (Dako (Carpinteria, Calif.), rabbit polyclonal, added at a 1:100 dilution). […] Cells were then washed twice and were incubated with FITC-conjugated secondary antibody (Jackson ImmunoResearch, West Grove, Pa.) in a 1:100 dilution, washed twice and taken up in OptiMEM (GIBCO/BRL, Carlsbad, Calif.) and analyzed on a Becton Dickinson (Franklin Lakes, N.J.) FACScan flow cytometer (excitation 488 nm, argon laser; emission 580/30). […]

[4] = tested on: differentiating ES cells (J1); assay: Confocal microscopy of vWF and Oct-4 staining in differentiating ES cells; conditions: for vWF expression (confocal microscopy): FIG. 15A, treated differentiating ES cells; for Oct-4 levels of differentiating cells (confocal microscopy): FIG. 15B
Description: as §2, §1
For microscopic analysis of endothelial cells, the differentiating J1 cells were fixed in cold methanol at designated time points, blocked in goat serum and probed overnight with a rabbit primary antibody against vWF, an endothelial cell marker, or Oct-4, a stem cell marker. The sections were washed and re-probed with a goat secondary antibody coupled to FITC. The nuclei were counterstained with propidium iodide. Images were captured using a […] LSM510 confocal microscope at a 512×512 pixels resolution (Leica, Bannockburn, Ill.). Fluorochromes were excited with 488 nm and 543 nm laser lines, and the images were captured using 505-530 BP and 565-615 BP filters at a 512×512 pixels resolution.
To dissect the role of HSGAG structure in ES cell differentiation, the cell surface and extracellular HSGAG moieties of differentiating ES cells were modified using an enzymatic and pharmacological approach. Specifically, differentiating ES cells were incubated with Hep-I or Hep-III for 30 minutes every day to cleave the cell surface and extracellular matrix (ECM) HSGAGs at structurally distinct sites, or cultured in media supplemented with sodium chlorate, which is a pharmacological inhibitor of HSGAG biosynthesis (Safaiyan, F., et al. (1999) J Biol Chem 274, 36267-73). Hep-I cleaves HSGAGs at highly sulfated regions, and Hep-III cleaves HSGAGs at undersulfated regions (Linhardt, R. J., et al. (1990) Biochemistry 29, 2611-7; Godavarti, R., and Sasisekharan, R. (1996) Biochem Biophys Res Commun 229, 770-7). […]

ES cells = assay: Optimization of culture conditions for differentiation of ES cells into endothelial cells (marker expression); conditions: 15% FBS present, LIF absent
Description: Mouse embryonic stem cells (J1) (gift from Bevin Engelward, Mass. Institute of Technology, Cambridge, Mass.) were grown in DMEM with 2 mM L-glutamine (GIBCO, Carlsbad, Calif.) adjusted to contain 100 mM sodium pyruvate, 10 mM nonessential amino acids and 1.5 g/L sodium bicarbonate, with 15% fetal bovine serum (Hyclone, South Logan, Utah) and supplemented with 100 units/mL penicillin G (Sigma, St. Louis, Mo.), 100 μg/mL streptomycin sulfate (Sigma), 30 mM beta-mercaptoethanol (Sigma) and 1000 units/ml murine leukemia inhibitory factor, LIF (Chemicon, Temecula, Calif.). The cells were plated in 10 cm^2 cell culture dishes, coated with 0.1% gelatin B (Sigma) and grown at 37° C. in a 5% CO2 humidifier incubator. The culture medium was changed every 2 days. The cells were subcultured at a split ratio of 1:10 when they reached 80% to 90% confluency, using a 0.25% trypsin-EDTA solution (Sigma). To induce formation of embryoid bodies and differentiation into endothelial cells, J1 cells were plated at a density of 1.25×10^5 cells/100 mm dish, or 3×10^4 cells/6 wells and cultured in the absence of LIF. Fresh media was replenished every 2 days.
To optimize the conditions for efficient differentiation of ES cells into endothelial cells in vitro, the expression levels of ES cell specific and endothelial cell specific markers were analyzed at different stages of differentiation under different cell culture conditions. Specifically, the effects of cell density, the ECM content (i.e., gelatin, collagen, laminin, matrigel), exogenous addition of growth factors (i.e., VEGF, FGF, HGF and insulin) and different types of serum (i.e., Sigma fetal bovine serum (FBS) and Hyclone FBS) were tested.

[5] = heparin added to sodium chlorate treated ES cells

| Molecule | phosphorylation of ERK1/2 [1] | Oct-4 transcript levels [2] | VE-cadherin transcript levels [2] | eNOS transcript levels [2] | decrease of the proportion of cells expressing detectable levels of vWF [3] | vWF expression (confocal microscopy) [4] | Oct-4 levels of differentiating cells (confocal microscopy) [4] | effect of exogenous addition of growth factors on differentiation into endothelial cells (ES cells) | also measured |
| --- | --- | --- | --- | --- | --- | --- | --- | --- | --- |
| [O-][Cl+2]([O-])O [sodium chlorate, reference compound] | inhibits | no effect | significantly decreased | significantly decreased | approximately 5 fold | inhibitory effects | none of the treatments had significant effects |  |  |
| HGF: growth factor added exogenously to the culture |  |  |  |  |  |  |  | No effects |  |
| VEGF |  |  |  |  |  |  |  | No effects |  |
| heparin [reference compound] |  |  |  |  |  |  |  |  | phosphorylation of ERK1/2, reversal of inhibition ([1]; exogenous heparin added to treated cells): inhibition is reversed; VE-cadherin transcript levels, reconstitution [2, 5]: increased; eNOS transcript levels, reconstitution [2, 5]: increased; vWF staining (confocal microscopy), reconstitution ([4]; heparin added to sodium chlorate treated ES cells during differentiation, FIG. 15C): increased vWF staining |
| insulin: listed among growth factors added exogenously to the culture |  |  |  |  |  |  |  | No effects |  |
| B1 | inhibits | no effect | significantly decreased | significantly decreased | approximately 5 fold | inhibitory effects | none of the treatments had significant effects |  |  |
| B2 | inhibits | no effect | decreased | decreased | ~3 fold | inhibitory effects | none of the treatments had significant effects |  |  |
